# Square brackets hold non-standard residues; d marks the D form. Peptide text beside a SMILES is read from it. pT = C[C@@H](OP(=O)(O)O)[C@H](N)C(=O)O
# Biological target: T1, Bub1^289–359–R314A–Bub3 (Saccharomyces cerevisiae, UniProt P26449+P41695, R314A)
# T1 construct: S. cerevisiae Bub1^289–359 and for full length Bub3; ITC experiment with the MELT2^P peptide and the Bub1^289–359–R314A–Bub3 complex; GST (N, cleaved yes); made in house; host or cells: E. coli BL21 DE3 plysS
# Type: binding
# Conditions: ITC; Bub3-Bub1^R314A mutant compared to wild type Bub3–Bub1; MELT4^P: data not shown
# Excerpt: Such function of Bub1 is probably exerted primarily through its structuring effects on the 4-stranded β-sheet ‘roof’ that dominates the peptide-binding region of Bub3 and which restrains the position of the positively charged residues in the ‘north’ area of the MELT^P-binding site (Figure 4E). Additionally, we observe that Arg314^Bub1, in the β1-β2 loop, contributes to the interaction with the phosphate group of P-Thr172^Spc105/Knl1 (the interaction, however, is only observed in one of the two complexes in the asymmetric unit, and in proximity of a crystal contact) and is therefore directly engaged in the interaction with the MELT2^P peptide. In ITC measurements, we observed a ∼fourfold reduction in the binding affinity of the Bub3-Bub1^R314A mutant for the MELT2^P peptide, in agreement with a role of Arg314^Bub1 is in the interaction of the Bub1-Bub3 complex with MELT2^P (Figure 4F). Similarly, Bub3–Bub1^R314A bound the MELT4^P with ∼threefold decreased affinity compared to wild type Bub3–Bub1 (data not shown).
# Binding isotherm was measured at 25°C by isothermal titration calorimetry on a MicroCal ITC200 device (GE Healthcare, Piscataway, NJ). All samples were extensively dialysed into fresh GF buffer (20 mM Tris pH7.5, 150 mM NaCl, 1 mM DTE). […]
# T1 sequence (P26449 whole entry): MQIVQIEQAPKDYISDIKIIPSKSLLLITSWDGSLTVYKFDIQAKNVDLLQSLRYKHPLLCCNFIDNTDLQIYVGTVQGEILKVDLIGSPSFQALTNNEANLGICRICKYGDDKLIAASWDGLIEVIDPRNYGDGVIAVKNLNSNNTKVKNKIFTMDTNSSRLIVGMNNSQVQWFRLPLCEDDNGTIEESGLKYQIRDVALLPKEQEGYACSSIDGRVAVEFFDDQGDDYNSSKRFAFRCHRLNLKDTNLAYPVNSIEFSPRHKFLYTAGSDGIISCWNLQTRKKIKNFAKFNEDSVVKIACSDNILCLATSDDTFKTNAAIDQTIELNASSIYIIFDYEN
# T1 sequence (P41695 289-359 R314A): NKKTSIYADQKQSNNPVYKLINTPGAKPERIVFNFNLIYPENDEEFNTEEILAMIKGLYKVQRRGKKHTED
smiles,measurement,value
CC[C@H](C)[C@H](NC(=O)[C@H](CO)NC(=O)[C@H](CCCNC(=N)N)NC(=O)[C@@H]1CCCN1C(=O)[C@H](Cc1ccccc1)NC(=O)[C@@H](NC(=O)[C@H](CCC(=O)O)NC(=O)[C@@H](NC(=O)[C@H](CCSC)NC(=O)[C@H](CCC(=O)O)NC(=O)[C@H](CCSC)NC(=O)[C@H](CO)NC(=O)[C@@H](NC(=O)[C@@H]1CCCN1C(=O)[C@H](CC(=O)O)NC(C)=O)[C@@H](C)O)[C@@H](C)OP(=O)(O)O)C(C)C)C(=O)N[C@@H](CCCNC(=N)N)C(=O)N[C@@H](CCC(N)=O)C(=O)N[C@@H](CCCCN)C(=O)N[C@@H](CC(N)=O)C(N)=O [MELT2^P] (Ac-DPTSMEM[pT]EVFPRSIRQKN-NH2; N-terminus and C-terminus assumed),fold reduction in binding affinity,fourfold

# From publication PMC3779320, “Bub3 reads phosphorylated MELT repeats to promote spindle assembly checkpoint signaling” (eLife, 2013)
